#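 Cultured in 96-well plates, cells were exposed to test compound for 48 hours across five concentrations. GI50 = concentration required for 50% inhibition of growth.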 Calls of active or inactive are those of the source. Rule as the data show it: active = GI50 up to about 1.1 µM and inactive = higher.
# What was measured:
# Experiment in all cases: NCI anticancer screen, dose series, 48 h
# SF-539 = system: SF-539
# OVCAR-3 = system: OVCAR-3
# SK-OV-3 = system: SK-OV-3
# SNB-75 = system: SNB-75
# 786-0 = system: 786-0
# SN12C = system: SN12C
# CAKI-1 = system: CAKI-1
# IGROV-1 = system: IGROV-1
# OVCAR-8 = system: OVCAR-8
# SF-268 = system: SF-268
# PC-3 = system: PC-3
# SK-MEL-2 = system: SK-MEL-2
# HOP-92 = system: HOP-92
# NCI/ADR-RES = system: NCI/ADR-RES
# UACC-257 = system: UACC-257
# RXF 393 = system: RXF 393
# MCF7 = system: MCF7
# OVCAR-4 = system: OVCAR-4
# T47D = system: T47D
# HT-29 = system: HT-29
# HCC 2998 = system: HCC 2998
# LOX IMVI = system: LOX IMVI
# U-251 = system: U-251
# HL-60 = system: HL-60
# CCRF-CEM = system: CCRF-CEM
# Malme-3M = system: Malme-3M
# UACC-62 = system: UACC-62
# HOP-62 = system: HOP-62
# MDA-MB-231 = system: MDA-MB-231
# SNB-19 = system: SNB-19
# BT-549 = system: BT-549
# A498 = system: A498
# MDA-MB-435 = system: MDA-MB-435
# M14 = system: M14
# HCT-15 = system: HCT-15
# A549 = system: A549
# KM12 = system: KM12
# SF-295 = system: SF-295
# ACHN = system: ACHN
# OVCAR-5 = system: OVCAR-5
# EKVX = system: EKVX
# NCI-H23 = system: NCI-H23
# MOLT-4 = system: MOLT-4
# NCI-H460 = system: NCI-H460
# NCI-H226 = system: NCI-H226
# K562 = system: K562
# SK-MEL-28 = system: SK-MEL-28
# RPMI-8226 = system: RPMI-8226
# UO-31 = system: UO-31
# NCI-H522 = system: NCI-H522
# SW-620 = system: SW-620
# HCT-116 = system: HCT-116
# SK-MEL-5 = system: SK-MEL-5
# MDA-N = system: MDA-N
# TK-10 = system: TK-10
# Hs-578T = system: Hs-578T
# COLO 205 = system: COLO 205
# SR = system: SR
# DU-145 = system: DU-145
structure (smiles),measurement,setting,value
O=C(NNC(=O)c1ccncc1)C(=O)Nc1cc(Cl)c(Cl)cc1Cl,GI50,SF-539,> 100 µM (inactive)
same,GI50,OVCAR-3,> 100 µM (inactive)
same,GI50,SK-OV-3,> 100 µM (inactive)
same,GI50,SNB-75,> 100 µM (inactive)
same,GI50,786-0,> 100 µM (inactive)
same,GI50,SN12C,> 100 µM (inactive)
same,GI50,CAKI-1,> 100 µM (inactive)
same,GI50,IGROV-1,45.6 µM (inactive)
same,GI50,OVCAR-8,> 100 µM (inactive)
same,GI50,SF-268,> 100 µM (inactive)
same,GI50,PC-3,> 100 µM (inactive)
same,GI50,SK-MEL-2,> 100 µM (inactive)
same,GI50,HOP-92,> 100 µM (inactive)
same,GI50,NCI/ADR-RES,> 100 µM (inactive)
same,GI50,UACC-257,> 100 µM (inactive)
same,GI50,RXF 393,> 100 µM (inactive)
same,GI50,MCF7,> 100 µM (inactive)
same,GI50,OVCAR-4,> 100 µM (inactive)
same,GI50,T47D,> 100 µM (inactive)
same,GI50,HT-29,> 100 µM (inactive)
same,GI50,HCC 2998,21.5 µM (inactive)
same,GI50,LOX IMVI,> 100 µM (inactive)
same,GI50,U-251,> 100 µM (inactive)
same,GI50,HL-60,> 100 µM (inactive)
same,GI50,CCRF-CEM,> 10 µM (inactive)
same,GI50,Malme-3M,> 100 µM (inactive)
same,GI50,UACC-62,> 100 µM (inactive)
same,GI50,HOP-62,> 100 µM (inactive)
same,GI50,MDA-MB-231,> 100 µM (inactive)
same,GI50,SNB-19,> 100 µM (inactive)
same,GI50,BT-549,> 100 µM (inactive)
same,GI50,A498,> 100 µM (inactive)
same,GI50,MDA-MB-435,> 100 µM (inactive)
same,GI50,M14,> 100 µM (inactive)
same,GI50,HCT-15,> 100 µM
same,GI50,A549,> 100 µM (inactive)
same,GI50,KM12,> 100 µM (inactive)
same,GI50,SF-295,> 100 µM (inactive)
same,GI50,ACHN,> 100 µM (inactive)
same,GI50,OVCAR-5,> 100 µM (inactive)
same,GI50,EKVX,> 100 µM (inactive)
same,GI50,NCI-H23,> 100 µM (inactive)
same,GI50,MOLT-4,> 100 µM (inactive)
same,GI50,NCI-H460,> 100 µM (inactive)
same,GI50,NCI-H226,> 100 µM (inactive)
same,GI50,K562,> 100 µM (inactive)
same,GI50,SK-MEL-28,> 100 µM (inactive)
same,GI50,RPMI-8226,> 100 µM (inactive)
same,GI50,UO-31,> 100 µM (inactive)
same,GI50,NCI-H522,> 100 µM (inactive)
same,GI50,SW-620,> 100 µM (inactive)
same,GI50,HCT-116,> 100 µM (inactive)
same,GI50,SK-MEL-5,> 100 µM (inactive)
same,GI50,MDA-N,> 100 µM (inactive)
same,GI50,TK-10,> 100 µM (inactive)
same,GI50,Hs-578T,> 100 µM (inactive)
CCN(CC)CCC(=O)OC1C(C)=CC(C)C(=O)CC(C(C)CC2CCC(O)C(OC)C2)OC(=O)C2CCCCN2C(=O)C(=O)[C@@]2(O)OC(CCC2C)CC(OC)\C(C)=C/C=C/C=C/C(C)CC(C)C(=O)C1OC (some centres not stated),GI50,SF-539,< 0.01 µM (active)
same,GI50,OVCAR-3,11.2 µM (inactive)
same,GI50,COLO 205,12.1 µM (inactive)
same,GI50,SK-OV-3,< 0.01 µM (active)
same,GI50,SNB-75,< 0.01 µM (active)
same,GI50,786-0,7.91 µM (inactive)
same,GI50,SN12C,6.37 µM (inactive)
same,GI50,CAKI-1,0.975 µM (active)
same,GI50,IGROV-1,< 0.01 µM (active)
same,GI50,SF-268,1.07 µM (active)
same,GI50,SR,< 0.01 µM (active)
same,GI50,PC-3,< 0.01 µM (active)
same,GI50,HOP-92,< 0.01 µM (active)
same,GI50,NCI/ADR-RES,11.3 µM (inactive)
same,GI50,UACC-257,13.3 µM (inactive)
same,GI50,RXF 393,< 0.01 µM (active)
same,GI50,MCF7,< 0.01 µM (active)
same,GI50,OVCAR-4,< 0.01 µM (active)
same,GI50,T47D,< 0.01 µM (active)
same,GI50,HT-29,1.91 µM (inactive)
same,GI50,HCC 2998,1.87 µM (inactive)
same,GI50,LOX IMVI,< 0.01 µM (active)
same,GI50,U-251,10.4 µM (inactive)
same,GI50,HL-60,1.96 µM (inactive)
same,GI50,HOP-62,< 0.01 µM (active)
same,GI50,MDA-MB-231,12.8 µM (inactive)
same,GI50,SNB-19,4.34 µM (inactive)
same,GI50,BT-549,< 0.01 µM (active)
same,GI50,A498,< 0.01 µM (active)
same,GI50,MDA-MB-435,4.57 µM (inactive)
same,GI50,M14,10.4 µM (inactive)
same,GI50,HCT-15,1.75 µM
same,GI50,A549,< 0.01 µM (active)
same,GI50,KM12,7.98 µM (inactive)
same,GI50,SF-295,< 0.01 µM (active)
same,GI50,ACHN,1.05 µM (active)
same,GI50,OVCAR-5,10.3 µM (inactive)
same,GI50,EKVX,< 0.01 µM (active)
same,GI50,NCI-H23,11.7 µM (inactive)
same,GI50,NCI-H226,12.9 µM (inactive)
same,GI50,K562,< 0.0183 µM (active)
same,GI50,SK-MEL-28,0.0791 µM (active)
same,GI50,RPMI-8226,0.415 µM (active)
same,GI50,UO-31,< 0.01 µM (active)
same,GI50,NCI-H522,12.2 µM (inactive)
same,GI50,SW-620,11.6 µM (inactive)
same,GI50,HCT-116,5.89 µM (inactive)
same,GI50,MDA-N,8.61 µM (inactive)
same,GI50,TK-10,5.69 µM (inactive)
same,GI50,Hs-578T,< 0.01 µM (active)
Cc1ccc2c(c1)NC(=O)CCSSCCC(=O)N2,GI50,SF-539,> 100 µM (inactive)
same,GI50,OVCAR-3,> 100 µM (inactive)
same,GI50,COLO 205,> 100 µM (inactive)
same,GI50,SK-OV-3,> 100 µM (inactive)
same,GI50,786-0,> 100 µM (inactive)
same,GI50,SN12C,> 100 µM (inactive)
same,GI50,CAKI-1,> 100 µM (inactive)
same,GI50,IGROV-1,> 100 µM (inactive)
same,GI50,OVCAR-8,> 100 µM (inactive)
same,GI50,SF-268,> 100 µM (inactive)
same,GI50,SR,> 100 µM (inactive)
same,GI50,PC-3,> 100 µM (inactive)
same,GI50,SK-MEL-2,> 100 µM (inactive)
same,GI50,HOP-92,> 100 µM (inactive)
same,GI50,NCI/ADR-RES,> 100 µM (inactive)
same,GI50,UACC-257,> 100 µM (inactive)
same,GI50,RXF 393,> 100 µM (inactive)
same,GI50,OVCAR-4,> 100 µM (inactive)
same,GI50,T47D,> 100 µM (inactive)
same,GI50,HT-29,> 100 µM (inactive)
same,GI50,LOX IMVI,> 100 µM (inactive)
same,GI50,U-251,> 100 µM (inactive)
same,GI50,HL-60,> 100 µM (inactive)
same,GI50,CCRF-CEM,> 100 µM (inactive)
same,GI50,DU-145,> 100 µM (inactive)
same,GI50,Malme-3M,> 100 µM (inactive)
same,GI50,UACC-62,> 100 µM (inactive)
same,GI50,HOP-62,> 100 µM (inactive)
same,GI50,MDA-MB-231,> 100 µM (inactive)
same,GI50,SNB-19,> 100 µM (inactive)
same,GI50,BT-549,> 100 µM (inactive)
same,GI50,A498,> 100 µM (inactive)
same,GI50,MDA-MB-435,> 100 µM (inactive)
same,GI50,M14,> 100 µM (inactive)
same,GI50,HCT-15,> 100 µM
same,GI50,A549,> 100 µM (inactive)
same,GI50,KM12,> 100 µM (inactive)
same,GI50,SF-295,> 100 µM (inactive)
same,GI50,ACHN,> 100 µM (inactive)
same,GI50,OVCAR-5,> 100 µM (inactive)
same,GI50,EKVX,> 100 µM (inactive)
same,GI50,NCI-H23,> 100 µM (inactive)
same,GI50,MOLT-4,> 100 µM (inactive)
same,GI50,NCI-H460,> 100 µM (inactive)
same,GI50,NCI-H226,> 100 µM (inactive)
same,GI50,K562,> 100 µM (inactive)
same,GI50,SK-MEL-28,> 100 µM (inactive)
same,GI50,RPMI-8226,> 100 µM (inactive)
same,GI50,UO-31,> 100 µM (inactive)
same,GI50,NCI-H522,> 100 µM (inactive)
same,GI50,SW-620,> 100 µM (inactive)
same,GI50,HCT-116,> 100 µM (inactive)
same,GI50,SK-MEL-5,> 100 µM (inactive)
same,GI50,MDA-N,> 100 µM (inactive)
same,GI50,TK-10,> 100 µM (inactive)
same,GI50,Hs-578T,> 100 µM (inactive)

# Source: ChEMBL document CHEMBL1201862, “PubChem BioAssay data set” (2004)
